The text below walks through data of US11180496B2 (Daewoong Pharmaceutical Co., Ltd., priority 2017, dated 2021).

One experiment has as its target T1, ITK (Homo sapiens, UniProt Q08881).
T1 construct: purchased Promega
T1 sequence (Q08881 1-620): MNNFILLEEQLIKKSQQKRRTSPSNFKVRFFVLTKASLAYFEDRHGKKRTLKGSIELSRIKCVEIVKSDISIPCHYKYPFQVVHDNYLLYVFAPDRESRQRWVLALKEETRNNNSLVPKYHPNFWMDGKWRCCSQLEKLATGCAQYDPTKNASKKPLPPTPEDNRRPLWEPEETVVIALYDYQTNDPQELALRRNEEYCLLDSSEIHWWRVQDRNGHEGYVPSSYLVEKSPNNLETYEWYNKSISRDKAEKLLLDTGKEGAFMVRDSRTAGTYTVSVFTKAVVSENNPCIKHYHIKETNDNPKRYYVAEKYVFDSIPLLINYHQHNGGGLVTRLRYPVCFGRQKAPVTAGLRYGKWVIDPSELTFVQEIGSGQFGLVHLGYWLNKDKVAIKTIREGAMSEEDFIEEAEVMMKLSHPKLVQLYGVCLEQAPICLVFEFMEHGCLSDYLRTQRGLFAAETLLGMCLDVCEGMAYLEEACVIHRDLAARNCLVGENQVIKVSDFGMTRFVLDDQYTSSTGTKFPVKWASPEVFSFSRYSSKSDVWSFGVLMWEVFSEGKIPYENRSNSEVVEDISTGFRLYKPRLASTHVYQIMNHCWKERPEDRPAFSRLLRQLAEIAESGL
The experiment can be described thus: ITK inhibitory activity, ADP-Glo + ITK Kinase enzyme system kit (Promega). In kind it is biochemical. As to conditions: ITK enzyme 0.4 ng/uL, ATP 25 uM, 15 min preincubation, luminescence, duplicate. The protocol: (§1) The inhibitory activity against BTK and ITK of the compounds prepared in Examples above were measured as follows.
(§2) The inhibitory activity against ITK was evaluated using ‘ADP-Glo™+ITK Kinase enzyme system’ kit from Promega. […] 5 uL of substrate and 5 uL of ATP prepared at a final concentration of 25 uM were added to all wells of the plate after completion of the reaction, and allowed to react at 30° C. for 1 hour. All wells of the plate after completion of the reaction were treated with 25 uL of ADP-Glo™ reagent and reacted at 30° C. for 40 minutes. Then, 50 uL of the kinase detection buffer was applied to all wells of the plate, and then the light was blocked and reacted at 30° C. for 30 minutes. For the plate for which all reactions were completed, the luminescence was measured and the results were calculated. The evaluation was performed in duplicate. The respective values of negative and positive controls, depending on whether the enzymes were added without treatment of the compound, were determined, and IC50 was calculated based on the values.

Another experiment concerns the target T2, BTK (Homo sapiens, UniProt Q06187).
T2 construct: purchased Promega
Put plainly: BTK inhibitory activity, ADP-Glo + BTK Kinase enzyme system kit (Promega). In kind it is biochemical. As to conditions: BTK enzyme 1 ng/uL, ATP 10 uM, 15 min preincubation, luminescence, duplicate. The protocol:
as §1
as §2, with “against BTK” for “against ITK”, “using ‘ADP-Glo™+BTK” for “using ‘ADP-Glo™+ITK”, “of 10” for “of 25”
(In general: In ADP-Glo the light output rises with the ADP produced.)

T2 sequence (Q06187 whole entry): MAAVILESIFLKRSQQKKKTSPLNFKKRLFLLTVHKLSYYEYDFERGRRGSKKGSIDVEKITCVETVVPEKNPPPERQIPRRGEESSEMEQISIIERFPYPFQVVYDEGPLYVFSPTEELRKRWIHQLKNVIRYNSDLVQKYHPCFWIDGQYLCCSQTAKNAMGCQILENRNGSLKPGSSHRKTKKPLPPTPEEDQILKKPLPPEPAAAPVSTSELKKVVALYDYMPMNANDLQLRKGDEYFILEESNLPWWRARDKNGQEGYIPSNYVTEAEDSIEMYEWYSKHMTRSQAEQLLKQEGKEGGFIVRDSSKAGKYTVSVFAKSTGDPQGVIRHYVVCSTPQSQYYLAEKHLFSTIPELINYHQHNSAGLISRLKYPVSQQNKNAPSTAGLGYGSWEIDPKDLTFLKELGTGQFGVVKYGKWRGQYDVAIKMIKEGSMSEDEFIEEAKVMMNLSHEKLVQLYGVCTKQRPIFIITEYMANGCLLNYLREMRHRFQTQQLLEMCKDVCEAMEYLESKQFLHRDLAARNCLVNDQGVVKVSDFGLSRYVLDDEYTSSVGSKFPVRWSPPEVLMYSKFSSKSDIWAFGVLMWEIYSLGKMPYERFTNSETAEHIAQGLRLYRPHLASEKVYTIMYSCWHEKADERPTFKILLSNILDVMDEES

Broadly, the IC50 is the point on the concentration scale where inhibition reaches its midpoint. Regarding `C=CC(=O)N1CCC[C@@H](n2nc(-c3ccc(C(=O)Nc4ccccc4)cc3)c3c(N)ncc(C)c32)C1` [Example 44, (R)-4-(1-(1-acryloylpiperidin-3-yl)-4-amino-7-methyl-1H-pyrazolo[4,3-c]pyridin-3-yl)-N-phenyl benzamide], the IC50 on ITK is 105 nM; on BTK, > 1.56 nM.

Take `C=CC(=O)N1CCC[C@@H](n2nc(-c3ccc(C(=O)Nc4ccccn4)cc3)c3c(N)ncc(C)c32)C1` [Example 45, (R)-4-(1-(1-acryloylpiperidin-3-yl)-4-amino-7-methyl-1H-pyrazolo[4,3-c]pyridin-3-yl)-N-(pyridin-2-yl)benzamide]: the IC50 at ITK turned out to be 66.8 nM; at BTK, 11.2 nM.

Turning to `C=CC(=O)N1CC[C@H](n2nc(-c3ccc(C(=O)Nc4ccccc4)cc3)c3c(N)ncc(-c4cnn(C(F)F)c4)c32)C1` [Example 46, (S)-4-(1-(1-acryloylpyrrolidin-3-yl)-4-amino-7-(1-(difluoromethyl)-1H-pyrazol-4-yl)-1H-pyrazolo[4,3-c]pyridin-3-yl)-N-phenylbenzamide], the IC50 was > 1000 nM on ITK and > 400 nM on BTK.

As for `C=CC(=O)N1CC[C@H](n2nc(-c3ccc(C(=O)Nc4ccccc4)cc3)c3c(N)nccc32)C1` [Example 47, (S)-4-(1-(1-acryloylpyrrolidin-3-yl)-4-amino-1H-pyrazolo[4,3-c]pyridin-3-yl)-N-phenylbenzamide], the IC50 is > 1000 nM at ITK and 180 nM at BTK.

On to `CC#CC(=O)N1CC[C@H](n2nc(-c3ccc(C(=O)Nc4ccccc4)cc3)c3c(N)nccc32)C1` [Example 48, (S)-4-(4-amino-1-(1-but-2-ynoylpyrrolidin-3-yl)-1H-pyrazolo[4,3-c]pyridin-3-yl)-N-phenylbenzamide], for which the figures for the IC50 on ITK and on BTK were > 1000 nM and > 400 nM, respectively.

Turning to `C=CC(=O)N1CCC[C@@H](n2nc(-c3ccc(C(=O)Nc4ccccn4)cc3F)c3c(N)ncc(Cl)c32)C1` [Example 49, (R)-4-(1-(1-acryloylpiperidin-3-yl)-4-amino-7-chloro-1H-pyrazolo[4,3-c]pyridin-3-yl)-3-fluoro-N-(pyridin-2-yl)benzamide], the concentration for half-maximal inhibition (IC50) worked out at 3.3 nM at ITK and 1.2 nM on BTK.

In the case of `C=CC(=O)N1CCC[C@@H](n2nc(-c3ccc(C(=O)Nc4ccccn4)cc3F)c3c(N)ncc(I)c32)C1` [Example 50, (R)-4-(1-(1-acryloylpiperidin-3-yl)-4-amino-7-iodo-1H-pyrazolo[4,3-c]pyridin-3-yl)-3-fluoro-N-(pyridin-2-yl)benzamide], the IC50 at ITK was 2.1 nM; at BTK, 1.3 nM.

As for `C=CC(=O)N1CC2CC1[C@H](n1nc(-c3ccc(C(=O)Nc4ccccn4)cc3F)c3c(N)nccc31)C2` (stereo partly drawn) [Example 51, 4-(1-((6R)-2-acryloyl-2-azabicyclo[2.2.1]heptan-6-yl)-4-amino-1H-pyrazolo[4,3-c]pyridin-3-yl)-3-fluoro-N-(pyridin-2-yl)benzamide], the IC50 at ITK was 30.8 nM; on BTK it was 0.5 nM.

Consider `C=CC(=O)N1CC(n2nc(-c3ccc(C(=O)Nc4ccccn4)cc3F)c3c(N)nccc32)C1` [Example 52], for which the IC50 on ITK came out at 51.6 nM; on BTK, 1.6 nM.

Take `C=CC(=O)N1CCC[C@@H](n2nc(-c3ccc(C(=O)Nc4ccccn4)cc3F)c3c(N)ncc(C#N)c32)C1` [Example 53, (R)-4-(1-(1-acryloylpiperidin-3-yl)-4-amino-7-cyano-1H-pyrazolo[4,3-c]pyridin-3-yl)-3-fluoro-N-(pyridin-2-yl)benzamide]: the figures for the IC50 at ITK and at BTK were 4.3 nM and 0.5 nM, respectively.

Consider `C=C(C)C(=O)N1CCC[C@@H](n2nc(-c3ccc(C(=O)Nc4ccccn4)cc3F)c3c(N)nccc32)C1` [Example 54, (R)-4-(4-amino-1-(1-methacryloylpiperidin-3-yl)-1H-pyrazolo[4,3-c]pyridin-3-yl)-3-fluoro-N-(pyridin-2-yl)benzamide], for which the IC50 on ITK is > 1000 nM; at BTK it was 77.5 nM.

`C=C(C)C(=O)N1CCC[C@@H](n2nc(-c3ccc(C(=O)Nc4ccccn4)cc3F)c3c(N)ncc(Cl)c32)C1` [Example 55, (R)-4-(4-amino-7-chloro-1-(1-methacryloylpiperidin-3-yl)-1H-pyrazolo[4,3-c]pyridin-3-yl)-3-fluoro-N-(pyridin-2-yl)benzamide]: the IC50 on ITK was 124 nM; on BTK, 6.4 nM.

For the molecule `C=CC(=O)N1CCC[C@@H](n2nc(-c3ccc(C(=O)Nc4ccccn4)cc3Cl)c3c(N)nccc32)C1` [Example 56, (R)-4-(1-(1-acryloylpiperidin-3-yl)-4-amino-1H-pyrazolo[4,3-c]pyridin-3-yl)-3-chloro-N-(pyridin-2-yl)benzamide], the IC50 at ITK was found to be 0.6 nM; on BTK, 0.4 nM.

For the molecule `C=CC(=O)N1CCC[C@@H](n2nc(-c3ccc(C(=O)Nc4ccccn4)cc3OC)c3c(N)nccc32)C1` [Example 57, (R)-4-(1-(1-acryloylpiperidin-3-yl)-4-amino-1H-pyrazolo[4,3-c]pyridin-3-yl)-3-methoxy-N-(pyridin-2-yl)benzamide], the IC50 was 11.4 nM at ITK and 0.5 nM at BTK.

`C=CC(=O)N1CCC[C@@H](n2nc(-c3ccc(C(=O)Nc4ccccn4)cc3Cl)c3c(N)ncc(Cl)c32)C1` [Example 58, (R)-4-(1-(1-acryloylpiperidin-3-yl)-4-amino-7-chloro-1H-pyrazolo[4,3-c]pyridin-3-yl)-3-chloro-N-(pyridin-2-yl)benzamide]: the IC50 worked out at 9.3 nM at ITK and 8.8 nM at BTK.

In the case of `C=CC(=O)N1CCC[C@@H](n2nc(-c3ccc(C(=O)Nc4ccccn4)cc3OC)c3c(N)ncc(Cl)c32)C1` [Example 59, (R)-4-(1-(1-acryloylpiperidin-3-yl)-4-amino-7-chloro-1H-pyrazolo[4,3-c]pyridin-3-yl)-3-methoxy-N-(pyridin-2-yl)benzamide], the results for the IC50 at ITK and on BTK were 26 nM and 3.7 nM, respectively.

In the case of `C=CC(=O)N1CC(n2nc(-c3ccc(C(=O)Nc4ccccn4)cc3F)c3c(N)ncc(Cl)c32)C1` [Example 60, 4-(1-(1-acryloylazetidin-3-yl)-4-amino-7-chloro-1H-pyrazolo[4,3-c]pyridin-3-yl)-3-fluoro-N-(pyridin-2-yl)benzamide], the IC50 came to 263 nM on ITK and 0.4 nM on BTK.

Regarding `C=CC(=O)N1CCC[C@@H](n2nc(Nc3cnn(C4CC4)c3)c3c(N)nccc32)C1` [Example 61, (R)-1-(3-(4-amino-3-(1-cyclopropyl-1H-pyrazol-4-ylamino)-1H-pyrazolo[4,3-c]pyridin-1-yl)piperidin-1-yl)prop-2-en-1-one], the figures for the IC50 on ITK and on BTK were > 1000 nM and 187 nM, respectively.

For `C=CC(=O)N1CCC[C@@H](n2nc(Br)c3c(N)nccc32)C1` [Example 62, (R)-1-(3-(4-amino-3-bromo-1H-pyrazolo[4,3-c]pyridin-1-yl)piperidin-1-yl)prop-2-en-1-one], the IC50 at ITK amounted to 8.1 nM; on BTK it was 6.3 nM.

`C=CC(=O)N1CC(n2nc(-c3ccc(C(=O)Nc4ccccn4)cc3Cl)c3c(N)nccc32)C1` [Example 63, 4-(1-(1-acryloylazetidin-3-yl)-4-amino-1H-pyrazolo[4,3-c]pyridin-3-yl)-3-chloro-N-(pyridin-2-yl)benzamide]: the IC50 was 30.1 nM at ITK and 3.1 nM on BTK.

`C=CC(=O)N1CC(n2nc(-c3ccc(C(=O)Nc4ccccn4)cc3Cl)c3c(N)ncc(Cl)c32)C1` [Example 64, 4-(1-(1-acryloylazetidin-3-yl)-4-amino-7-chloro-1H-pyrazolo[4,3-c]pyridin-3-yl)-3-chloro-N-(pyridin-2-yl)benzamide]: the IC50 on ITK came to 22.5 nM; at BTK it was 1.1 nM.
